Measured values as given in PubChem BioAssay (NCI).
Several values for one entry are separate records, joined by “and”; a condition that tells them apart may be missing. Identical values can stand only once.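 Each compound was tested at five concentrations against cells in 96-well plates for 48 hours. At the GI50, growth is halved. TGI is the concentration that stops growth completely.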

How the values were obtained:
Experiment in all cases: DTP human tumour cell line panel, 48 h
786-0 renal = test system: 786-0 renal
M14 melanoma = test system: M14 melanoma
MDA-MB-231 breast = test system: MDA-MB-231 breast
RXF 393 renal = test system: RXF 393 renal
IGROV1 ovarian = test system: IGROV1 ovarian
MOLT-4 leukemia = test system: MOLT-4 leukemia
SF-268 CNS = test system: SF-268 CNS
SNB-75 CNS = test system: SNB-75 CNS
TK-10 renal = test system: TK-10 renal
HS 578T breast = test system: HS 578T breast

Nc1nc2cc(CC[C@H]3C[C@@H](n4ccc5c(N)ncnc54)[C@H](O)[C@@H]3O)ccc2cc1Br
GI50 (786-0 renal): 12.7 µM
TGI (786-0 renal): 28.9 µM
GI50 (M14 melanoma): 11.4 µM
TGI (M14 melanoma): 25.6 µM
GI50 (MDA-MB-231 breast): 11.1 µM
TGI (MDA-MB-231 breast): 24.4 µM
GI50 (RXF 393 renal): 6.95 µM
TGI (RXF 393 renal): 22.9 µM
GI50 (IGROV1 ovarian): 10.2 µM
TGI (IGROV1 ovarian): 23.1 µM
GI50 (MOLT-4 leukemia): 2.43 µM
TGI (MOLT-4 leukemia): 64.3 µM
GI50 (SF-268 CNS): 11.3 µM
TGI (SF-268 CNS): 27 µM
GI50 (SNB-75 CNS): 4 µM
TGI (SNB-75 CNS): 19.1 µM
GI50 (TK-10 renal): 12.2 µM
TGI (TK-10 renal): 26.3 µM
GI50 (HS 578T breast): 14.1 µM
TGI (HS 578T breast): 36.8 µM

COc1ccc(/C(C#N)=C/c2cc(OC)c(OC)c(OC)c2)cc1
GI50 (786-0 renal): 41.3 µM
TGI (786-0 renal): > 100 µM
GI50 (M14 melanoma): 19.3 µM
TGI (M14 melanoma): > 100 µM
GI50 (MDA-MB-231 breast): 14.1 µM
TGI (MDA-MB-231 breast): > 100 µM
GI50 (RXF 393 renal): 20.6 µM
TGI (RXF 393 renal): > 100 µM
GI50 (IGROV1 ovarian): 29.2 µM
TGI (IGROV1 ovarian): > 100 µM
GI50 (MOLT-4 leukemia): 20.2 µM
TGI (MOLT-4 leukemia): 66 µM
GI50 (SF-268 CNS): 39.6 µM
TGI (SF-268 CNS): > 100 µM
GI50 (SNB-75 CNS): 11.6 µM
TGI (SNB-75 CNS): 87.7 µM
GI50 (TK-10 renal): 37.4 µM
TGI (TK-10 renal): > 100 µM
GI50 (HS 578T breast): 38.7 µM
TGI (HS 578T breast): > 100 µM

COC1=CC(c2ccc[nH]2)=N/C1=C\c1[nH]c(C)c(CC(=O)OCc2ccccc2)c1C
GI50 (786-0 renal): 0.299 µM
TGI (786-0 renal): 1.19 µM
GI50 (M14 melanoma): 0.233 µM
TGI (M14 melanoma): 0.59 µM
GI50 (MDA-MB-231 breast): 0.144 µM
TGI (MDA-MB-231 breast): 0.859 µM
GI50 (RXF 393 renal): 0.43 µM
TGI (RXF 393 renal): 2.07 µM
GI50 (IGROV1 ovarian): 0.325 µM
TGI (IGROV1 ovarian): 1.34 µM
GI50 (MOLT-4 leukemia): 0.23 µM
TGI (MOLT-4 leukemia): 1.27 µM
GI50 (SF-268 CNS): 0.358 µM
TGI (SF-268 CNS): 2.56 µM
GI50 (SNB-75 CNS): 0.217 µM
TGI (SNB-75 CNS): 0.777 µM
GI50 (TK-10 renal): 0.351 µM
TGI (TK-10 renal): 2.11 µM
GI50 (HS 578T breast): 0.362 µM
TGI (HS 578T breast): 2.26 µM

COC(=O)c1c2c(c(C)[n+]([O-])c1C)C(=O)C=C(NCc1cccc(Cl)c1)C2=O
GI50 (786-0 renal): 1.44 µM
TGI (786-0 renal): 3.64 µM
GI50 (M14 melanoma): 0.28 µM
TGI (M14 melanoma): 1.56 µM
GI50 (MDA-MB-231 breast): 0.261 µM
TGI (MDA-MB-231 breast): 2.77 µM
GI50 (RXF 393 renal): 1.2 µM
TGI (RXF 393 renal): 2.53 µM
GI50 (IGROV1 ovarian): 0.221 µM
TGI (IGROV1 ovarian): 1.09 µM
GI50 (MOLT-4 leukemia): 0.505 µM
TGI (MOLT-4 leukemia): 1.89 µM
GI50 (SF-268 CNS): 0.737 µM
TGI (SF-268 CNS): 3.15 µM
GI50 (SNB-75 CNS): 1.64 µM
TGI (SNB-75 CNS): 3.01 µM
GI50 (TK-10 renal): 2.43 µM
TGI (TK-10 renal): 6.52 µM
GI50 (HS 578T breast): 1.77 µM
TGI (HS 578T breast): 6.79 µM

CC(C)=CC(=O)N[C@H]1CC[C@]2(C)C3CC[C@]4(C)C(C(C)N(C)C)=CCC4C3CCC2[C@H]1O (some centres not stated)
GI50 (786-0 renal): 2.85 µM
TGI (786-0 renal): 9.23 µM
GI50 (M14 melanoma): 1.92 µM
TGI (M14 melanoma): 3.74 µM
GI50 (MDA-MB-231 breast): 3.34 µM
TGI (MDA-MB-231 breast): 9.79 µM
GI50 (RXF 393 renal): 2.7 µM
TGI (RXF 393 renal): 9.74 µM
GI50 (IGROV1 ovarian): 8.5 µM
TGI (IGROV1 ovarian): 25.3 µM
GI50 (MOLT-4 leukemia): 2.81 µM
TGI (MOLT-4 leukemia): 11.4 µM
GI50 (SF-268 CNS): 2.35 µM
TGI (SF-268 CNS): 6.63 µM
GI50 (SNB-75 CNS): 8.76 µM
TGI (SNB-75 CNS): 21.8 µM
GI50 (TK-10 renal): 11 µM
TGI (TK-10 renal): 26.3 µM
GI50 (HS 578T breast): 4.25 µM
TGI (HS 578T breast): 18.8 µM

O=c1oc2cc(OC/C(=N/O)c3ccc(F)cc3)ccc2c2ccccc12
GI50 (786-0 renal): 11.7 µM
TGI (786-0 renal): 25 µM
GI50 (M14 melanoma): 19.2 µM
TGI (M14 melanoma): 33.7 µM
GI50 (MDA-MB-231 breast): 14.8 µM
TGI (MDA-MB-231 breast): 30.3 µM
GI50 (RXF 393 renal): 14.7 µM
TGI (RXF 393 renal): 32.5 µM
GI50 (IGROV1 ovarian): 23.6 µM
TGI (IGROV1 ovarian): 42 µM
GI50 (MOLT-4 leukemia): 16.7 µM
TGI (MOLT-4 leukemia): 42.7 µM
GI50 (SF-268 CNS): 21.1 µM
TGI (SF-268 CNS): 42.3 µM
GI50 (SNB-75 CNS): 23.7 µM
TGI (SNB-75 CNS): 43.9 µM
GI50 (TK-10 renal): 27 µM
TGI (TK-10 renal): 81.2 µM
GI50 (HS 578T breast): 28.8 µM
TGI (HS 578T breast): 63.1 µM

CC(C)C(=O)c1c(C(F)(F)F)n([O-])c2cc(F)c(F)cc2[n+]1=O
GI50 (786-0 renal): 0.444 µM
TGI (786-0 renal): 0.97 µM
GI50 (M14 melanoma): 0.0708 µM
TGI (M14 melanoma): 0.387 µM
GI50 (MDA-MB-231 breast): 0.176 µM
TGI (MDA-MB-231 breast): 0.77 µM
GI50 (RXF 393 renal): 0.456 µM
TGI (RXF 393 renal): 1.19 µM
GI50 (IGROV1 ovarian): 0.161 µM
TGI (IGROV1 ovarian): 53.7 µM
GI50 (MOLT-4 leukemia): 0.0933 µM
GI50 (SF-268 CNS): 0.4 µM
TGI (SF-268 CNS): 1.05 µM
GI50 (SNB-75 CNS): 1.08 µM
TGI (SNB-75 CNS): 2.75 µM
GI50 (TK-10 renal): 0.976 µM
TGI (TK-10 renal): 2.67 µM
GI50 (HS 578T breast): 0.598 µM
TGI (HS 578T breast): 2.64 µM

NC(N)=NC(N)=NCCCc1ccco1
GI50 (786-0 renal): 83.5 µM
TGI (786-0 renal): 265 µM
GI50 (M14 melanoma): 53.6 µM
TGI (M14 melanoma): 123 µM
GI50 (MDA-MB-231 breast): 68.8 µM
TGI (MDA-MB-231 breast): 198 µM
GI50 (RXF 393 renal): 77.5 µM
TGI (RXF 393 renal): 237 µM
GI50 (IGROV1 ovarian): > 500 µM
TGI (IGROV1 ovarian): > 500 µM
GI50 (MOLT-4 leukemia): 28.3 µM
TGI (MOLT-4 leukemia): 176 µM
GI50 (SF-268 CNS): 61.5 µM
TGI (SF-268 CNS): 156 µM
GI50 (SNB-75 CNS): 83.3 µM
TGI (SNB-75 CNS): 245 µM
GI50 (TK-10 renal): 22.7 µM
TGI (TK-10 renal): 119 µM
GI50 (HS 578T breast): 96 µM
TGI (HS 578T breast): 383 µM

CCC1(OC(=O)CN)C(=O)OCc2c1cc1n(c2=O)Cc2cc3ccccc3nc2-1 (configuration not stated)
GI50 (786-0 renal): 0.00563 µM
TGI (786-0 renal): 0.194 µM and 0.161 µM
GI50 (M14 melanoma): 0.0179 µM
TGI (M14 melanoma): 0.846 µM and 0.174 µM
GI50 (MDA-MB-231 breast): 0.652 µM
TGI (MDA-MB-231 breast): 6.04 µM
GI50 (RXF 393 renal): 0.148 µM
TGI (RXF 393 renal): 0.88 µM and 0.307 µM
GI50 (IGROV1 ovarian): 0.134 µM
TGI (IGROV1 ovarian): 0.726 µM and 2.21 µM
GI50 (MOLT-4 leukemia): 0.00396 µM
TGI (MOLT-4 leukemia): 0.0305 µM
GI50 (SF-268 CNS): 0.00689 µM
TGI (SF-268 CNS): 14.2 µM
GI50 (SNB-75 CNS): 0.0183 µM
TGI (SNB-75 CNS): 0.246 µM and 0.484 µM
GI50 (TK-10 renal): 0.721 µM
TGI (TK-10 renal): 15.1 µM
TGI (HS 578T breast): > 90.7 µM

Nc1nc(SCc2ccccc2Cl)cc(C(=O)O)n1
TGI (786-0 renal): > 100 µM
TGI (M14 melanoma): > 100 µM
TGI (MDA-MB-231 breast): > 100 µM
TGI (RXF 393 renal): > 100 µM
TGI (IGROV1 ovarian): > 100 µM
TGI (SF-268 CNS): > 100 µM
TGI (SNB-75 CNS): > 100 µM
TGI (TK-10 renal): > 100 µM
TGI (HS 578T breast): > 100 µM

CC(=O)O[C@H]1C(=O)[C@@]2(C)[C@H]([C@H](OC(=O)c3ccccc3)[C@]3(O)C[C@H](OC(=O)[C@H](OC(=O)OC[C@H]4COC(C)(C)O4)[C@@H](NC(=O)c4ccccc4)c4ccccc4)C(C)=C1C3(C)C)[C@]1(OC(C)=O)CO[C@@H]1C[C@@H]2O
GI50 (786-0 renal): 0.122 µM
TGI (786-0 renal): > 33.3 µM
GI50 (M14 melanoma): 0.0171 µM
TGI (M14 melanoma): 0.133 µM
GI50 (MDA-MB-231 breast): 0.0736 µM
TGI (MDA-MB-231 breast): > 7.74 µM
GI50 (RXF 393 renal): 0.0307 µM
TGI (RXF 393 renal): 0.201 µM
GI50 (IGROV1 ovarian): 0.0494 µM
TGI (IGROV1 ovarian): > 33.3 µM
GI50 (MOLT-4 leukemia): 0.0408 µM
TGI (MOLT-4 leukemia): > 33.3 µM
GI50 (SF-268 CNS): 0.165 µM
TGI (SF-268 CNS): > 33.3 µM
GI50 (SNB-75 CNS): 0.00333 µM
TGI (SNB-75 CNS): 0.0697 µM
GI50 (TK-10 renal): 0.492 µM
TGI (TK-10 renal): > 33.3 µM
GI50 (HS 578T breast): 0.0166 µM
TGI (HS 578T breast): 0.39 µM

O=C(CI)Nc1ccc(O)c2ccccc12
GI50 (786-0 renal): 1.73 µM
TGI (786-0 renal): 3.27 µM
GI50 (M14 melanoma): 1.06 µM
TGI (M14 melanoma): 2.63 µM
GI50 (MDA-MB-231 breast): 2.59 µM
TGI (MDA-MB-231 breast): 6.69 µM
GI50 (RXF 393 renal): 0.742 µM
TGI (RXF 393 renal): 1.97 µM
GI50 (IGROV1 ovarian): 0.296 µM
TGI (IGROV1 ovarian): 0.926 µM
GI50 (MOLT-4 leukemia): 0.846 µM
TGI (MOLT-4 leukemia): 8.18 µM
GI50 (SF-268 CNS): 2.03 µM
TGI (SF-268 CNS): 5.56 µM
GI50 (SNB-75 CNS): 1.61 µM
TGI (SNB-75 CNS): 4.98 µM
GI50 (TK-10 renal): 1.72 µM
TGI (TK-10 renal): 3.75 µM
GI50 (HS 578T breast): 2.45 µM
TGI (HS 578T breast): 8.49 µM
